Data set [1] concerns Plasmodium falciparum. As to the kind of experiment: Antiplasmodial activity against Plasmodium falciparum 3D7 assessed as inhibition of parasite growth at 8.66 ug/ml by SYBR Green I dye based assay. In kind it is functional, organism-based.
A short description of data set [2]: Half life in human microsomes. In kind it is ADME, Microsome.
For data set [3], the system named is Measles morbillivirus.
Description: (§1) Antiviral activity against measles virus rMV2/Luc infected in HEK-293T cells assessed as inhibition of virus growth incubated for 24 hrs by firefly luciferase reporter gene assay
Data set [4] concerns Plasmodium falciparum. As to the kind of experiment: Antiplasmodial activity against Plasmodium falciparum 3D7 assessed as inhibition of parasite growth by SYBR Green I dye based assay. In kind it is functional, organism-based.
In data set [5] the target is T1, Dihydroorotate dehydrogenase (quinone), mitochondrial (Plasmodium falciparum (isolate 3D7)) (UniProt Q08210).
T1 sequence (whole entry): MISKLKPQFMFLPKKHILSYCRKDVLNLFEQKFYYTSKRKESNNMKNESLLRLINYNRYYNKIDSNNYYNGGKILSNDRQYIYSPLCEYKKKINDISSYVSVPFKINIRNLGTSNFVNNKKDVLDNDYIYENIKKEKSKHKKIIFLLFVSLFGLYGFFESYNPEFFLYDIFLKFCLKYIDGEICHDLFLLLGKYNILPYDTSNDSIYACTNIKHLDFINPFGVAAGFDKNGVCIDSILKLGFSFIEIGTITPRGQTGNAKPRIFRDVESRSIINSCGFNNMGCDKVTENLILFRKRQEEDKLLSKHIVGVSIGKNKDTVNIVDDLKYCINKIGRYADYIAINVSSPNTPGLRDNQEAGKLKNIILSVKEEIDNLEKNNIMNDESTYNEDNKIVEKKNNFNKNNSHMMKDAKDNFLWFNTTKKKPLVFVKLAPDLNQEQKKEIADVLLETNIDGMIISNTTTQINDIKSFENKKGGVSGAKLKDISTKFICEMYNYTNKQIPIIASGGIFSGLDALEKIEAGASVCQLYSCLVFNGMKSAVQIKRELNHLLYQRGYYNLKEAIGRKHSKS
As to the kind of experiment: Inhibition of Plasmodium falciparum DHODH expressed in Escherichia coli by […]-based spectrophotometric method.

For the next data set, the system named is Jurkat. As to the kind of experiment: Inhibition of cell proliferation of human Jurkat cells incubated for 72 hrs by Celltiter-Glo assay. In kind it is functional, cell-based.
Data set [6] relates to Measles morbillivirus. As to the kind of experiment: microbe, parasite or virus in culture. The following applies: rMV2/Luc, 24 h.
Description: as §1

In brackets after ≈: the same amount, converted by molar mass. Activity calls are given as the source filed them. A value given as a limit tells only on which side of the number the result lay.

As for `Cc1c(Oc2c(F)cccc2F)c(OC(C)C)nn1-c1ccc(C2CC2)cn1`, the “growth inhibition (GI)” value with Plasmodium falciparum [1] was “inactive”. In addition, the t1/2 in data set [2] came out at 6 min. In the data set on Measles morbillivirus [3], the pMIC50 worked out at 9.

In general, IC50 refers to the point on the concentration scale where inhibition reaches its midpoint. In the case of `Cc1ccc(-n2nc(OC(C)C)c(Oc3c(F)cccc3F)c2C)nn1`, in the data set on Plasmodium falciparum [4], the half-inhibitory concentration (IC50) came to 470 nM. The inhibition result in data set [5] was “inactive”.

In the case of `COc1ccc(-n2nc(OC(C)C)c(Oc3c(F)cccc3F)c2C)nn1`, in the data set with Plasmodium falciparum [1], the “growth inhibition (GI)” value was “inactive”. In addition, the t1/2 in data set [2] was found to be 22 min. This compound also returned a pMIC50 with Measles morbillivirus [3] of 7.1.

Regarding `CCOc1nn(-c2ccc(C3CC3)cn2)c(C)c1Oc1ccccc1Br`, the “growth inhibition (GI)” value in the data set on Plasmodium falciparum [1] is “inactive”. For the same compound, in the data set on Measles morbillivirus [3], the pMIC50 worked out at 7.8.

Regarding `CCOc1nn(-c2ccc(C3CC3)cn2)c(C)c1Oc1cccc(Cl)c1Cl`, the “growth inhibition (GI)” value with Plasmodium falciparum [1] is “inactive”. Further, the pMIC50 with Measles morbillivirus [3] amounted to 7.9.

Turning to `Cc1c(Oc2c(F)cccc2F)c(OC(C)C)nn1-c1ccc(C2CC2)nn1`, in the data set with Plasmodium falciparum [4], the IC50 was found to be 330 nM. Also, the inhibition entry in data set [5] is “inactive”.

With `Cc1c(Oc2c(F)cccc2F)c(OC(C)C)nn1-c1cnc(C2CC2)nc1`, the “growth inhibition (GI)” value in the data set on Plasmodium falciparum [1] is “inactive”. The same compound had a pMIC50 in the data set on Measles morbillivirus [3] of 6.8.

`CCOc1nn(-c2ncccc2C)c(C)c1Cc1ccccc1`: the “growth inhibition (GI)” value with Plasmodium falciparum [1] was “inactive”. The pMIC50 in the data set with Measles morbillivirus [3] is reported as <5.

For `CCOc1nn(-c2ccc(C3CC3)nn2)c(C)c1Oc1ccc(C(F)(F)F)cc1`, the “growth inhibition (GI)” value in the data set on Plasmodium falciparum [1] is “inactive”. In the data set on Measles morbillivirus [3], this compound had a pMIC50 of 5.2.

As to `Cc1c(Oc2c(F)cccc2F)c(OC(C)C)nn1-c1ncc(C2CC2)cc1O`, in the data set on Plasmodium falciparum [1], the “growth inhibition (GI)” value was “inactive”. In addition, in data set [2], the t1/2 amounted to 38 min. Further, the pMIC50 in the data set on Measles morbillivirus [3] came out at 8.1.

In the case of `CCOc1nn(-c2ccc(C3CC3)nn2)c(C)c1Oc1ccccc1F`, in the data set with Plasmodium falciparum [1], the “growth inhibition (GI)” value was “inactive”. Besides, in the data set with Measles morbillivirus [3], the pMIC50 was 7.7.

On to `Cc1c(Oc2ccc(F)cc2F)c(OC(C)C)nn1-c1ccc(C2CC2)cn1`, for which the “growth inhibition (GI)” value with Plasmodium falciparum [1] is “inactive”. Also, the pMIC50 with Measles morbillivirus [3] is given as 6.5.

In the case of `Cc1c(Oc2c(F)cccc2F)c(OC(C)C)nn1-c1ccc(Br)cn1`, in the data set with Plasmodium falciparum [1], the “growth inhibition (GI)” value is “inactive”. In addition, the pMIC50 with Measles morbillivirus [3] is 6.3.

In the case of `Cc1c(Oc2c(F)cccc2F)c(OC(C)C)nn1-c1ccc(Cl)nn1`, the “growth inhibition (GI)” value in the data set with Plasmodium falciparum [1] is “inactive”. The compound further registered a pMIC50 in the data set with Measles morbillivirus [3] of 6.8.

For `CCOc1nn(-c2ccc(C3CC3)nn2)c(C)c1Oc1ccccc1Cl`, in the data set with Plasmodium falciparum [1], the “growth inhibition (GI)” value is “inactive”. For the same compound, the pMIC50 with Measles morbillivirus [3] amounted to 7.1.

`Cc1c(Oc2ccccc2F)c(OC(C)C)nn1-c1ccc(C2CC2)nn1`: the “growth inhibition (GI)” value in the data set with Plasmodium falciparum [1] was “inactive”. Also, the pMIC50 in the data set with Measles morbillivirus [3] stood at 7.4.

In the case of `CCOc1nn(-c2ccc(C3CC3)nn2)c(C)c1Oc1cc(Cl)cc(Cl)c1`, the “growth inhibition (GI)” value with Plasmodium falciparum [1] was “inactive”. In the data set with Measles morbillivirus [3], this compound gave a pMIC50 of 6.2.

For `CCOc1nn(-c2ccc(Br)cn2)c(C)c1Cc1ccccc1`, in the data set with Plasmodium falciparum [1], the “growth inhibition (GI)” value was “inactive”. Moreover, the pMIC50 with Measles morbillivirus [3] was determined as 5.3.

On to `COc1cc(C2CC2)cnc1-n1nc(OC(C)C)c(Oc2c(F)cccc2F)c1C`, for which the “growth inhibition (GI)” value with Plasmodium falciparum [1] was “inactive”. In the data set on Measles morbillivirus [3], this compound yielded a pMIC50 of 7.5.

As to `Cc1c(Oc2c(F)cccc2F)c(OC(C)C)nn1-c1ncc(C2CC2)cc1OCc1ccccc1`, the “growth inhibition (GI)” value with Plasmodium falciparum [1] is “inactive”. This compound also gave a pMIC50 with Measles morbillivirus [3] of 7.

In the case of `CCOc1nn(-c2ccc(C3CC3)nn2)c(C)c1Oc1ccccc1C(F)(F)F`, the “growth inhibition (GI)” value in the data set on Plasmodium falciparum [1] is “inactive”. The same compound returned a pMIC50 with Measles morbillivirus [3] of 6.8.

`CCOc1nn(-c2ccc(C(=O)OC)cn2)c(C)c1Cc1ccccc1`: the “growth inhibition (GI)” value in the data set with Plasmodium falciparum [1] was “inactive”. Moreover, the pMIC50 in the data set on Measles morbillivirus [3] is recorded as <5.

Consider `Cc1c(Oc2c(F)cccc2F)c(OC(C)C)nn1-c1ccc(C(F)(F)F)cn1`, for which the “growth inhibition (GI)” value in the data set with Plasmodium falciparum [1] was “inactive”. In addition, in the data set with Measles morbillivirus [3], the pMIC50 is recorded as 6.5.

With `CCOc1nn(-c2cc(C)ccn2)c(C)c1Cc1ccccc1`, in the data set with Plasmodium falciparum [1], the “growth inhibition (GI)” value is “inactive”. The pMIC50 with Measles morbillivirus [3] amounted to 5.4.

Turning to `CCOc1nn(-c2ncc(C3CC3)cc2F)c(C)c1Cc1ccccc1`, the “growth inhibition (GI)” value in the data set on Plasmodium falciparum [1] was “inactive”. Moreover, the pMIC50 in the data set on Measles morbillivirus [3] is recorded as 7.

Regarding `Cc1c(Oc2ccccc2F)c(OC(C)C)nn1-c1ccc(C2CC2)cn1`, the “growth inhibition (GI)” value in the data set on Plasmodium falciparum [1] was “inactive”. Moreover, in data set [2], the t1/2 turned out to be 4 min. This compound also had a pMIC50 in the data set with Measles morbillivirus [3] of 7.4.

On to `CCOc1nn(-c2ccc(C(C)C)cn2)c(C)c1Cc1ccccc1`, for which, in the data set with Plasmodium falciparum [1], the “growth inhibition (GI)” value was “inactive”. In the data set on Measles morbillivirus [3], this compound returned a pMIC50 of 5.9.

For the compound `CCOc1nn(-c2ncc(Br)cc2F)c(C)c1Cc1ccccc1`, the “growth inhibition (GI)” value in the data set with Plasmodium falciparum [1] was “inactive”. For the same compound, the pMIC50 in the data set with Measles morbillivirus [3] was determined as 5.9.

Take `Cc1c(Oc2c(F)cccc2F)c(OC(C)C)nn1-c1ccc(C(C)(F)F)cn1`: in the data set with Plasmodium falciparum [1], the “growth inhibition (GI)” value was “inactive”. The same compound registered a pMIC50 with Measles morbillivirus [3] of 7.1.

For `CCOc1nn(-c2ccc(C3CC3)cn2)c(C)c1Oc1ccccc1Cl`, the “growth inhibition (GI)” value in the data set with Plasmodium falciparum [1] is “inactive”. The same compound yielded a pMIC50 in the data set with Measles morbillivirus [3] of 7.9.

As for `Cc1c(Oc2c(F)cccc2F)c(OC(C)C)nn1-c1cnc(Br)cn1`, in the data set with Plasmodium falciparum [1], the “growth inhibition (GI)” value is “inactive”. Besides, the pMIC50 in the data set with Measles morbillivirus [3] amounted to 5.5.

Turning to `CCOc1nn(-c2ncc(Br)cc2C)c(C)c1Cc1ccccc1`, the “growth inhibition (GI)” value with Plasmodium falciparum [1] is “inactive”. Besides, the pMIC50 in the data set on Measles morbillivirus [3] is <5.

For `Cc1c(Oc2c(F)cccc2F)c(OC(C)C)nn1-c1ncc(Br)cc1F`, the “growth inhibition (GI)” value in the data set with Plasmodium falciparum [1] was “inactive”. The compound also returned a t1/2 in data set [2] of 60 min. Moreover, the pMIC50 in the data set with Measles morbillivirus [3] came to 6.9.

In the case of `Cc1c(Oc2c(F)cccc2F)c(OC(C)C)nn1-c1ccccn1`, the “growth inhibition (GI)” value in the data set with Plasmodium falciparum [1] is “inactive”. In addition, in the data set on Measles morbillivirus [3], the pMIC50 was <5.

For the compound `CCOc1nn(-c2cccc(C)n2)c(C)c1Cc1ccccc1`, the “growth inhibition (GI)” value in the data set with Plasmodium falciparum [1] is “inactive”. In the data set on Measles morbillivirus [3], the pMIC50 is given as <5.

For `C/C(O)=C(\C#N)C(=O)Nc1ccc(C(F)(F)F)cc1` [TERIFLUNOMIDE], the “growth inhibition (GI)” value in the data set on Plasmodium falciparum [1] was “inactive”. In the data set with Jurkat, the IC50 stood at 60000 nM. This compound also displayed an MIC50 in the data set on Measles morbillivirus [6] of 5 µM (≈ 1.35 µg/mL).

In the case of `CCOc1nn(-c2cccc(F)n2)c(C)c1Cc1ccccc1`, the “growth inhibition (GI)” value in the data set with Plasmodium falciparum [1] was “inactive”. Besides, in the data set on Measles morbillivirus [3], the pMIC50 is recorded as <5.

With `Cc1c(Oc2c(F)cccc2F)c(OC(C)C)nn1-c1ncc(C2CC2)cc1N(C)C`, the “growth inhibition (GI)” value in the data set on Plasmodium falciparum [1] is “inactive”. Also, in the data set with Measles morbillivirus [3], the pMIC50 is 7.5.

Turning to `CCOc1nn(-c2ccc(C#N)cn2)c(C)c1Cc1ccccc1`, the “growth inhibition (GI)” value in the data set on Plasmodium falciparum [1] was “inactive”. For the same compound, in the data set on Measles morbillivirus [3], the pMIC50 is <5.

As for `Cc1c(Oc2ccc(F)cc2F)c(OC(C)C)nn1-c1ccc(C2CC2)nn1`, in the data set on Plasmodium falciparum [1], the “growth inhibition (GI)” value is “inactive”. Also, in the data set with Measles morbillivirus [3], the pMIC50 turned out to be 6.4.

On to `CCOc1nn(-c2ccc(C3CC3)cn2)c(C)c1Oc1cccc(C(F)(F)F)c1`, for which, in the data set with Plasmodium falciparum [1], the “growth inhibition (GI)” value is “inactive”. In addition, the pMIC50 with Measles morbillivirus [3] stood at 7.1.
